# Measured values: patent US20240285571A1, “METHODS OF TREATING BONE INFECTIONS” (MICROBION CORPORATION, priority 2020, published 2024)
# What was measured:
# Acinetobacter baumannii = experiment: Broth microdilution MIC (Example 6); format: cell-based
# Description: (§1) Test Compounds: The test agents BisEDT (MB-1-B3; Lot No. ED268-1-11-01), MB-2B, and MB-6 were stored at room temperature, in the dark, until assayed. The solvent and diluent for the test agents was DMSO (Sigma; St. Louis, MO; Lot No. SHBB9319V) and the prepared stock concentration was 6,464 μg/mL (101× the final test concentration).
# (§2) Test compounds were evaluated at a concentration range of 0.06-64 μg/mL. For Gram-negative test isolates, amikacin and ceftazidime (alone and with clavulanate at a fixed concentration of 4 μg/mL) were evaluated over a concentration range of 0.06-64 μg/mL; meropenem and levofloxacin were evaluated over a concentration range of 0.008-8 μg/mL. For the testing of S. aureus, clindamycin, daptomycin, levofloxacin and vancomycin were evaluated at a concentration range of 0.008-8 μg/mL; linezolid was tested from 0.03-32 μg/mL.
# (§3) Media: Cation-adjusted Mueller Hinton broth (CAMHB; BD; Lot No. 8190586) was used as the medium for testing (2, 3). For testing daptomycin, calcium was supplemented with […] Ca^2+, resulting in a final concentration of […] Ca^2+ (2, 3).
# (§4) MIC Assay Procedure: MIC values were determined using a broth microdilution procedure described by CLSI (2, 3). Automated liquid handlers (Multidrop 384, Labsystems, Helsinki, Finland; Biomek 2000 and Biomek F X, Beckman Coulter, Fullerton CA) were used to conduct serial dilutions and liquid transfers.
# (§5) To prepare the drug mother plates, which would provide the serial drug dilutions for the replicate daughter plates, the wells of columns 2 through 12 of standard 96-well microdilution plates (Costar 3795) were filled with 150 μl of the appropriate diluent for each row of drug. The test articles and comparator compounds (300 μl at 101× the highest concentration to be tested) were dispensed into the appropriate wells in column 1. The Biomek 2000 was then used to make 2-fold serial dilutions in the mother plates from column 1 through column 11. The wells of column 12 contained no drug and served as the organism growth control wells for the assay.
# (§6) The daughter plates were loaded with 190 μL per well of RPMI using the Multidrop 384. The test panels were prepared on the Biomek FX instrument which transferred 2 μL of drug solution from each well of a mother plate to the corresponding well of each daughter plate in a single step.
# (§7) A standardized inoculum of each test organism was prepared per CLSI methods to equal a 0.5 McFarland standard, followed by a dilution of 1:20. The plates were then inoculated with 10 μL of the diluted inoculum using the Biomek 2000 from low to high drug concentration resulting in a final concentration of approximately 5×10^5 CFU/mL.
# (§8) Plates were stacked 3-4 high, covered with a lid on the top plate, placed into plastic bags, and incubated at 35° C. for 16 to 20 hr (vancomycin was read for S. aureus after 24 hr incubation time). The MIC was recorded as the lowest concentration of drug that inhibited visible growth of the organism.
# Klebsiella pneumoniae = experiment: Broth microdilution MIC (Example 6); format: cell-based
# Description: (§9) Test Compounds: The test agents BisEDT (MB-1-B3; Lot No. ED268-1-11-01), MB-2B, and MB-6 were stored at room temperature, in the dark, until assayed.
# (§10) For testing daptomycin, calcium was supplemented with […] Ca^2+, resulting in a final concentration of […] Ca^2+ (2, 3).
# (§11) MIC Assay Procedure: MIC values were determined using a broth microdilution procedure described by CLSI (2, 3).
# (§12) The Biomek 2000 was then used to make 2-fold serial dilutions in the mother plates from column 1 through column 11. The wells of column 12 contained no drug and served as the organism growth control wells for the assay.
# (§13) The test panels were prepared on the Biomek FX instrument which transferred 2 μL of drug solution from each well of a mother plate to the corresponding well of each daughter plate in a single step.
# as §7, §8
# Escherichia coli = experiment: Broth microdilution MIC (Example 6); format: cell-based
# Description: as §9, §10, §11, §12, §13, §7, §8
# Pseudomonas aeruginosa = experiment: Broth microdilution MIC (Example 6); format: cell-based
# Description: as §9, §10, §11, §12, §13, §7, §8
# S. pneumoniae = experiment: Broth microdilution MIC (Example 5); format: cell-based
# Description: (§14) Test and Comparator Agents: The test agents were stored at room temperature until assayed. […] The stock solutions were allowed to stand for at least 1 hr prior to use to auto-sterilize.
# (§15) TestMedia: Test media were prepared and stored in accordance with guidelines from CLSI (4, 6, 7).
# (§16) Broth Microdilution MC Testing (Aerobic Bacteria and Yeast): The broth microdilution assay method employed for the susceptibility testing of aerobic bacteria (excluding N. gonorrhoeae which was evaluated by agar dilution) and yeast essentially followed the procedures described by CLSI (3, 4, 7, 8) and employed automated liquid handlers to conduct serial dilutions and liquid transfers. […] These would become the ‘mother plates’ from which ‘daughter’ or test plates would be prepared. The drugs (300 μL at 40× the desired top concentration in the test plates) were dispensed into the appropriate well in Column 1 of the mother plates. The Biomek 2000 was used to make serial two-fold dilutions through Column 11 in the “mother plate”. The wells of Column 12 contained no drug and ultimately served as the organism growth control wells.
# (§17) The daughter plates were prepared using the Biomek FX which transferred 5 μL of drug solution from each well of a mother plate to the corresponding well of the correct daughter plate in a single step.
# (§18) A standardized inoculum of each organism was prepared per CLSI methods (3, 7). Isolated colonies of each test isolate were picked from the primary plate and a suspension was prepared to equal a 0.5 McFarland turbidity standard. Standardized suspensions were then diluted […] (1:100 for yeast, 1:20 for bacteria). After dilution, the inoculum suspensions were then transferred to compartments of sterile reservoirs divided by length (Beckman Coulter), and the Biomek 2000 was used to inoculate all plates. Daughter plates were placed on the Biomek 2000 in reverse orientation so that plates were inoculated from low to high drug concentration.
# (§19) The Biomek 2000 delivered 10 μL of standardized inoculum into each well of the appropriate daughter plate for an additional 1:20 dilution.
# (§20) Plates were stacked 4 high, covered with a lid on the top plate, placed into plastic bags, and incubated at 35° C. for approximately 24-48 hr for all yeast isolates and 16-24 hr for aerobic bacteria. Plates were viewed from the bottom using a plate viewer. […] MIC endpoints for the test agents and control compounds were read per CLSI criteria (3, 7).
# [1] = tested on: relevant ATCC QC organisms; experiment: Broth microdilution MIC, QC (Example 6); format: cell-based
# Description: as §1, §2
# Organisms: The test organisms as shown in Tables 11-15 consisted of clinical isolates from the Micromyx (MMX) repository and reference strains from the American Type Culture Collection (ATCC; Manassas, VA), National Collection of Type Cultures (NCTC; Public Health England, Salisbury, UK), the Network on Antimicrobial Resistance in Staphylococcus aureus (NARSA; BEI Resources, Manassas, VA), and the Centers for Disease Control and Prevention (CDC; Atlanta, GA). The test organisms were maintained frozen at −80° C. Prior to testing, the isolates were cultured on Tryptic Soy Agar with 5% sheep blood (BAP; Becton Dickson [BD]/BBL; Sparks, MD; Lot Nos. 9080650 and 9108563) at 35° C. Relevant ATCC quality control (QC) organisms (Table 16) were included during testing in accordance with CLSI guidelines (3). Further details on the genetic characterization of the isolates where available can be found in Table 17.
# as §3, §4, §5, §6, §7, §8
# S. aureus = experiment: Broth microdilution MIC (Example 5); format: cell-based, Staphylococcus aureus; settings: Staphylococcus aureus, ATCC 29213 / MSSA, S. aureus MMX 101 (ATCC 29213); QC; MSSA; read-out: MIC
# Description: as §14, §15, §16, §17, §18, §19, §20
# [2] = tested on: vancomycin-intermediate Staphylococcus aureus; experiment: Broth microdilution MIC (Example 6); format: cell-based
# Description: as §1, §2, §3, §4, §5, §6, §7, §8
smiles,measurement,setting,value
CC(C)(O/N=C(\C(=O)N[C@@H]1C(=O)N2C(C(=O)[O-])=C(C[n+]3ccccc3)CS[C@H]12)c1csc(N)n1)C(=O)O.O=C(O)[C@H]1/C(=C/CO)O[C@@H]2CC(=O)N21 [CAZ/CLAV],MIC,"Acinetobacter baumannii; A. baumannii isolate CDC 273, β-lactamase type ESBL/OXA",64/4
same,MIC,"Acinetobacter baumannii; A. baumannii isolate CDC 274, β-lactamase type ESBL/OXA",>64/4
same,MIC,"Acinetobacter baumannii; A. baumannii isolate CDC 275, β-lactamase type ESBL/OXA",>64/4
same,MIC,"Acinetobacter baumannii; A. baumannii isolate CDC 277, β-lactamase type ESBL/OXA",>64/4
same,MIC,"Acinetobacter baumannii; A. baumannii isolate CDC 284, β-lactamase type ESBL/OXA",16/4
same,MIC,"Acinetobacter baumannii; A. baumannii isolate CDC 307, β-lactamase type OXA",64/4
same,MIC,"Acinetobacter baumannii; A. baumannii isolate CDC 308, β-lactamase type ESBL/OXA",64/4
same,MIC,"Acinetobacter baumannii; A. baumannii isolate CDC 311, β-lactamase type OXA",>64/4
same,MIC,"Acinetobacter baumannii; A. baumannii isolate CDC 312, β-lactamase type OXA",>64/4
same,MIC,"Acinetobacter baumannii; A. baumannii isolate CDC 313, β-lactamase type ESBL/OXA",>64/4
same,MIC,"Acinetobacter baumannii; A. baumannii isolate NCTC 13304, β-lactamase type OXA",>64/4
same,MIC,"Klebsiella pneumoniae; K. pneumoniae ATCC BAA-1705, ESBL/KPC",>64/4
same,MIC,"Klebsiella pneumoniae; K. pneumoniae CDC 112, KPC",>64/4
same,MIC,"Klebsiella pneumoniae; K. pneumoniae CDC 113, ESBL/KPC",>64/4
same,MIC,"Klebsiella pneumoniae; K. pneumoniae CDC 115, ESBL/KPC",>64/4
same,MIC,"Klebsiella pneumoniae; K. pneumoniae CDC 120, ESBL/KPC",64/4
same,MIC,"Klebsiella pneumoniae; K. pneumoniae CDC 126, ESBL/KPC",8 µg/mL
same,MIC,"Klebsiella pneumoniae; K. pneumoniae CDC 129, ESBL/KPC",>64/4
same,MIC,"Klebsiella pneumoniae; K. pneumoniae CDC 135, ESBL/VIM",>64/4
same,MIC,"Klebsiella pneumoniae; K. pneumoniae CDC 138, ESBL/NDM",>64/4
same,MIC,"Klebsiella pneumoniae; K. pneumoniae CDC 158, ESBL/NDM/OXA",>64/4
same,MIC,"Escherichia coli; E. coli ATCC BAA-2471, NDM",>64/4
same,MIC,"Escherichia coli; E. coli CDC 114, ESBL/KPC",64/4
same,MIC,"Escherichia coli; E. coli CDC 118, ESBL/NDM",>64/4
same,MIC,"Escherichia coli; E. coli CDC 435, NDM",>64/4
same,MIC,"Escherichia coli; E. coli CDC 451, KPC",16/4
same,MIC,"Escherichia coli; E. coli CDC 503, ESBL/NDM",>64/4
same,MIC,"Escherichia coli; E. coli MMX 5745, KPC",16/4
same,MIC,"Escherichia coli; E. coli MMX 5755, ESBL",1/4
same,MIC,"Pseudomonas aeruginosa; P. aeruginosa isolate CDC 230, β-lactamase type VIM/OXA",32/4
same,MIC,"Pseudomonas aeruginosa; P. aeruginosa isolate CDC 231, β-lactamase type KPC/OXA",>64/4
same,MIC,"Pseudomonas aeruginosa; P. aeruginosa isolate CDC 241, β-lactamase type IMP/OXA",>64/4
same,MIC,"Pseudomonas aeruginosa; P. aeruginosa isolate CDC 246, β-lactamase type NDM/OXA",>64/4
same,MIC,"Pseudomonas aeruginosa; P. aeruginosa isolate CDC 250, β-lactamase type NDM/OXA",>64/4
same,MIC,"Pseudomonas aeruginosa; P. aeruginosa isolate CDC 356, β-lactamase type KPC",64/4
same,MIC,"Pseudomonas aeruginosa; P. aeruginosa isolate CDC 439, β-lactamase type IMP",>64/4
same,MIC,"Pseudomonas aeruginosa; P. aeruginosa isolate CDC 444, β-lactamase type VIM",32/4
same,MIC,"Pseudomonas aeruginosa; P. aeruginosa isolate CDC 457, β-lactamase type VIM",64/4
same,MIC,"Pseudomonas aeruginosa; P. aeruginosa isolate CDC 516, β-lactamase type KPC/AmpC",64/4
same,MIC,"Pseudomonas aeruginosa; P. aeruginosa isolate CDC 518, β-lactamase type KPC/AmpC",32/4
COc1cc(Cc2cnc(N)nc2N)cc(OC)c1OC.Cc1cc(NS(=O)(=O)c2ccc(N)cc2)no1 [Trimeth/Sulfa],MIC,"S. pneumoniae; S. pneumoniae MMX 880, LevR SXTR CCR EryR PenR",4/76
same,MIC,"S. pneumoniae; S. pneumoniae MMX 937, MemR SXTR CCR EryR PenR",16/304
same,MIC,"S. pneumoniae; S. pneumoniae MMX 3959, CCR EryR",2/38
same,MIC,"S. pneumoniae; S. pneumoniae MMX 5440, MemR SXTR CCR EryR PenR",16/304
same,MIC,"S. pneumoniae; S. pneumoniae MMX 5445, MemR SXTR CCR EryR PenR",8/152
same,MIC,"S. pneumoniae; S. pneumoniae MMX 8133, MemR SXTR CCR EryR PenR",8/152
CC(C)(O/N=C(\C(=O)N[C@@H]1C(=O)N2C(C(=O)[O-])=C(C[n+]3ccccc3)CS[C@H]12)c1csc(N)n1)C(=O)O.O=C(O)[C@H]1/C(=C/CO)O[C@@H]2CC(=O)N21 [CAZ + CLAV],MIC,[1]; K. pneumoniae ATCC BAA-1705,>64/4
same,MIC,[1]; P. aeruginosa ATCC 27853,2/4
Cc1onc(-c2ccccc2)c1C(=O)N[C@@H]1C(=O)N2[C@@H]1SC(C)(C)[C@@H]2C(=O)O [Oxacillin],MIC,S. aureus,0.2 µg/mL
CCCCCCCCCC(=O)N[C@@H](Cc1c[nH]c2ccccc12)C(=O)N[C@H](CC(N)=O)C(=O)N[C@@H](CC(=O)O)C(=O)N[C@@H]1C(=O)NCC(=O)N[C@@H](CCCN)C(=O)N[C@@H](CC(=O)O)C(=O)N[C@H](C)C(=O)N[C@@H](CC(=O)O)C(=O)NCC(=O)N[C@H](CO)C(=O)N[C@@H]([C@H](C)CC(=O)O)C(=O)N[C@@H](CC(=O)c2ccccc2N)C(=O)O[C@@H]1C [DAP],MIC,[2]; S. aureus isolate NRS 1 (hVISA),1 µg/mL
same,MIC,[2]; S. aureus isolate NRS 2,0.25 µg/mL
same,MIC,[2]; S. aureus isolate NRS 3,1 µg/mL
same,MIC,[2]; S. aureus isolate NRS 4,0.5 µg/mL
same,MIC,[2]; S. aureus isolate NRS 13,2 µg/mL
same,MIC,[2]; S. aureus isolate NRS 18,0.5 µg/mL
same,MIC,[2]; S. aureus isolate NRS 22,2 µg/mL
same,MIC,[2]; S. aureus isolate NRS 24 (hVISA),0.5 µg/mL
same,MIC,[2]; S. aureus isolate NRS 27,0.25 µg/mL
same,MIC,[1]; S. aureus ATCC 29213,0.5 µg/mL
